According to BindingDB's records for doi:10.7270/Q28G8J4C (Broad Institute, 2009):

target: T1, POsterior Segregation (Caenorhabditis elegans, UniProt G5EF15); assay: disruptors of C. elegans POS-1 RNA interaction – biochemical, fluorescence polarization, dose response (AID 1964)
T1 sequence (G5EF15 whole entry): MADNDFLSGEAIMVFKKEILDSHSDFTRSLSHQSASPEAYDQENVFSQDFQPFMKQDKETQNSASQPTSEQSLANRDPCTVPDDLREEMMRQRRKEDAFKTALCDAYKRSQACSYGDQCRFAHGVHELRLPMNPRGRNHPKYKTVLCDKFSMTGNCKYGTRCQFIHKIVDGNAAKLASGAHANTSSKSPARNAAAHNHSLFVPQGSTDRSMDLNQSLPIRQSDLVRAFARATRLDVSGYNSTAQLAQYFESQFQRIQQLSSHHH

Q: For `CSc1ccc(C2C(C(=O)c3ccco3)C(=O)C(=O)N2c2nnc(SC)s2)cc1` (stereo not given) [3-(furan-2-carbonyl)-4-hydroxy-2-(4-methylsulfanylphenyl)-1-(5-methylsulfanyl-1,3,4-thiadiazol-2-yl)-2H-pyrrol-5-one], which EC50 is on record?
A: 6.79 µM

Q: With `Cc1ncc(C=O)c(CNNC(=O)c2cc(Br)ccc2O)c1O` [5-bromanyl-N'-[(Z)-[5-(hydroxymethyl)-2-methyl-3-oxidanylidene-pyridin-4-ylidene]methyl]-2-oxidanyl-benzohydrazide] as the compound, how does the EC50 read?
A: > 300 µM

Q: `Cn1cc(C=C2C(=O)NC(=O)N(c3ccccc3)C2=O)c2ccccc21` [SMR000559087] was tested. Which EC50 did it give?
A: 5.28 µM

Q: Which EC50 does the source give for `CC(C)c1ccc(C2C(C#N)=C3Sc4ccccc4N3C(=N)C2C#N)cc1` (stereo not given) [1-amino-3-(4-propan-2-ylphenyl)-3H-pyrido[2,1-b][1,3]benzothiazole-2,4-dicarbonitrile] here?
A: 33 µM

Q: With `O=C1NC(=O)N(CCc2ccc(F)cc2)C(=O)C1=CNCCCn1ccnc1` [(5E)-1-[2-(4-fluorophenyl)ethyl]-5-[(3-imidazol-1-ylpropylamino)methylene]barbituric acid] as the compound, how does the EC50 read?
A: > 300 µM

Q: For `CCCSc1nnc(N2C(=O)C(=O)C(C(=O)c3ccco3)C2c2ccccc2F)s1` (stereo not given) [2-(2-fluorophenyl)-3-(furan-2-carbonyl)-4-hydroxy-1-(5-propylsulfanyl-1,3,4-thiadiazol-2-yl)-2H-pyrrol-5-one], which EC50 is on record?
A: > 300 µM

Q: For `COc1cc(C2C3=C(CCCC3=O)OC(=N)C2C#N)cc2c1OCO2` (stereo not given), which EC50 is on record?
A: > 300 µM

Q: How did the EC50 turn out when `COc1ccc(C2C3=C(CC(C)(C)CC3=O)OC(=N)C2C#N)c(OC)c1OC` (stereo not given) [2-amino-5-keto-7,7-dimethyl-4-(2,3,4-trimethoxyphenyl)-6,8-dihydro-4H-chromene-3-carbonitrile] was run?
A: > 300 µM

Q: For `CCN(CC)c1ccc(C=NC(C#N)C(=N)C#N)cc1` (stereo not given) [SMR000023871], which EC50 is on record?
A: 281 µM

Q: `O=C1c2cccc3cccc(c23)C(=O)C1[N+](=O)[O-]` [2-nitro-3-oxidanyl-phenalen-1-one] was tested. Which EC50 did it give?
A: 12.6 µM

Q: `CC1(C)CC(=O)C2=C(C1)OC(=N)C(C#N)C2c1cccc(OC(=O)c2ccco2)c1` (stereo not given) [2-furancarboxylic acid [3-(2-amino-3-cyano-7,7-dimethyl-5-oxo-6,8-dihydro-4H-1-benzopyran-4-yl)phenyl] ester] was tested. Which EC50 did it give?
A: > 300 µM

Q: With `COc1cccc(C2C3=C(CC(c4ccco4)CC3=O)OC(=N)C2C#N)c1OCc1ccc(F)cc1` (stereo not given) [SMR000021029] as the compound, how does the EC50 read?
A: > 300 µM

Q: Which EC50 does the source give for `CSc1nncc(C(C)N=Nc2ccccc2)n1` (stereo not given) [1-[3-(methylsulfanyl)-1,2,4-triazin-5-yl]ethanone phenylhydrazone] here?
A: 41.3 µM

Q: Which EC50 does the source give for `CCCOc1cccc(C2C(C(=O)c3ccco3)C(=O)C(=O)N2c2nnc(C)s2)c1` (stereo not given) [3-(furan-2-carbonyl)-4-hydroxy-1-(5-methyl-1,3,4-thiadiazol-2-yl)-2-(3-propoxyphenyl)-2H-pyrrol-5-one] here?
A: 51.9 µM

Q: With `COc1ccc(C2C(C(=O)c3ccco3)C(=O)C(=O)N2c2nnc(C)s2)cc1OC` (stereo not given) [2-(3,4-dimethoxyphenyl)-3-(furan-2-carbonyl)-4-hydroxy-1-(5-methyl-1,3,4-thiadiazol-2-yl)-2H-pyrrol-5-one] as the compound, how does the EC50 read?
A: > 300 µM

Q: `CCCN1CCC2=C(C#N)C(=N)C(C#N)(C#N)C(c3cc(OC)ccc3OC)C2C1` (stereo not given) [6-Amino-8-(2,5-dimethoxy-phenyl)-2-propyl-2,3,8,8a-tetrahydro-1H-isoquinoline-5,7,7-tricarbonitrile] was tested. Which EC50 did it give?
A: 27.9 µM

Q: Which EC50 does the source give for `Cc1c(C(=O)NN=Cc2ccco2)[nH][nH]c1=O` here?
A: > 300 µM

Q: For `CN(C)[C@@H]1C(=O)C(C(N)=O)C(=O)[C@@]2(O)C(=O)C3C(=O)c4c(O)cccc4[C@@](C)(O)[C@H]3[C@H](O)[C@@H]12` (stereo partly drawn) [(2E,4S,4aR,5S,5aR,6S,12aS)-2-[azanyl(oxidanyl)methylidene]-4-(dimethylamino)-6-methyl-5,6,10,11,12a-pentakis(oxidanyl)-4,4a,5,5a-tetrahydrotetracene-1,3,12-trione], which EC50 is on record?
A: 65.8 µM

Q: For `Cc1n[nH]c(C)c1Sc1ccccc1/N=C/C1C=C(Cl)C=C([N+](=O)[O-])C1=O` (stereo not given) [(6E)-4-chloranyl-6-[[[2-[(3,5-dimethyl-1H-pyrazol-4-yl)sulfanyl]phenyl]amino]methylidene]-2-nitro-cyclohexa-2,4-dien-1-one], which EC50 is on record?
A: > 300 µM

Q: How did the EC50 turn out when `CCOc1cc(C2C(C(C)=O)=C(C)OC(=N)C2C#N)cc(Br)c1O` (stereo not given) [2-azanyl-4-(3-bromanyl-5-ethoxy-4-oxidanyl-phenyl)-5-ethanoyl-6-methyl-4H-pyran-3-carbonitrile] was run?
A: 12.3 µM

Q: With `Cc1cc(-c2ccccc2)nc(N=NCc2ccc(O)cc2O)n1` [SMR000513422] as the compound, how does the EC50 read?
A: > 300 µM

Q: Which EC50 does the source give for `CC(=O)N1CCN(c2ccc(NC=C3C(=O)NC(=O)N(Cc4ccccc4)C3=O)cc2)CC1` [MLS000041641] here?
A: > 300 µM

Q: `C=c1[nH]n(-c2cccc(C(=O)O)c2)c(=O)c1=CC=Cc1ccco1` [SMR000113614] was tested. Which EC50 did it give?
A: 19.9 µM

Q: Which EC50 does the source give for `C=CCOc1cccc(C2C(C(=O)c3ccco3)C(=O)C(=O)N2Cc2ccco2)c1` (stereo not given) [1-(2-furanylmethyl)-3-[2-furanyl(oxo)methyl]-4-hydroxy-2-(3-prop-2-enoxyphenyl)-2H-pyrrol-5-one] here?
A: > 300 µM

Q: `O=NC1CC2(CC(N=O)C1N=O)OCCO2` (stereo not given) [9-(hydroxyamino)-8-nitroso-1,4-dioxaspiro[4.5]dec-8-en-7-one oxime] was tested. Which EC50 did it give?
A: > 300 µM

Q: `Oc1ccc(C=Nn2c(O)csc2=S)c(O)c1O` [3-[[(E)-[2,3-bis(oxidanyl)-4-oxidanylidene-cyclohexa-2,5-dien-1-ylidene]methyl]amino]-2-sulfanylidene-1,3-thiazolidin-4-one] was tested. Which EC50 did it give?
A: 5.17 µM

Q: `c1ccc(C2=Nc3nnnn3C(c3cccs3)C2)cc1` (stereo not given) [5-Phenyl-7-thiophen-2-yl-4,7-dihydro-tetrazolo[1,5-a]pyrimidine] was tested. Which EC50 did it give?
A: > 300 µM

Q: `COC1=CC(CN=Nc2[nH]c(=O)nnc2C)C=C([N+](=O)[O-])C1=O` (stereo not given) [5-[[(E)-(3-methoxy-5-nitro-4-oxo-1-cyclohexa-2,5-dienylidene)methyl]hydrazo]-6-methyl-2H-1,2,4-triazin-3-one] was tested. Which EC50 did it give?
A: 7.98 µM

Q: `C=c1cc(O)c(CN(C)C)c2oc(=Cc3ccco3)c(O)c12` [(2Z)-7-[(dimethylamino)methyl]-2-(furan-2-ylmethylidene)-6-hydroxy-4-methyl-1-benzofuran-3-one] was tested. Which EC50 did it give?
A: 32.1 µM

Q: For `COc1cc2c(cc1C1C3=C(CC(C)(C)CC3=O)OC(=N)C1C#N)OCO2` (stereo not given) [MLS001208406], which EC50 is on record?
A: > 300 µM

Q: For `N#CC1=C2CCCCC2C(c2cccnc2)C(C#N)(C#N)C1=N` (stereo not given) [2-amino-4-(3-pyridinyl)-4a,5,6,7-tetrahydro-4H-naphthalene-1,3,3-tricarbonitrile], which EC50 is on record?
A: 22.2 µM

Q: With `O=C1N=c2ccccc2=C1NNc1cccc(Cl)c1` [(3E)-1H-indole-2,3-dione 3-[(3-chlorophenyl)hydrazone]] as the compound, how does the EC50 read?
A: 125 µM

Q: `COc1cc(C2C3=C(CC(C)(C)CC3=O)OC(=N)C2C#N)ccc1OCCN1CCOCC1` (stereo not given) [MLS000779948] was tested. Which EC50 did it give?
A: > 300 µM

Q: `C=CCN1C(=O)NC(=O)C(=CCC=Nc2ccccc2)C1=O` [(5Z)-5-[(E)-3-phenylazanylprop-2-enylidene]-1-prop-2-enyl-1,3-diazinane-2,4,6-trione] was tested. Which EC50 did it give?
A: > 300 µM

Q: `O=C1NC(=S)N(c2ccc(F)cc2)C(=O)C1=Cc1ccco1` [(5E)-1-(4-fluorophenyl)-5-(2-furanylmethylidene)-2-sulfanylidene-1,3-diazinane-4,6-dione] was tested. Which EC50 did it give?
A: 10.4 µM

Q: `C[C@@H]1O[C@@H](O[C@@H]2[C@@H](O)[C@H](OCCc3ccc(O)c(O)c3)O[C@H](CO)[C@H]2OC(=O)/C=C/c2ccc(O)c(O)c2)[C@H](O)[C@H](O)[C@H]1O` [((2R,3R,4R,5R,6R)-6-(3,4-dihydroxyphenethoxy)-5-hydroxy-2-(hydroxymethyl)-4-((2S,3R,4R,5R,6S)-3,4,5-trihydroxy-6-methyltetrahydro-2H-pyran-2-yloxy)tetrahydro-2H-pyran-3-yl) 3-(3,4-dihydroxyphenyl)acrylate] was tested. Which EC50 did it give?
A: 20.6 µM

Q: How did the EC50 turn out when `COc1ccc(C(=O)CC2=NCC3c4ccccc4CCN3C2=O)cc1` (stereo not given) [(3Z)-3-[2-(4-methoxyphenyl)-2-oxidanylidene-ethylidene]-2,6,7,11b-tetrahydro-1H-pyrazino[2,1-a]isoquinolin-4-one] was run?
A: > 300 µM

Q: With `CC1CCC2=C(C#N)C(=N)C(C#N)(C#N)C(c3cccs3)C2C1` (stereo not given) [2-amino-6-methyl-4-(2-thienyl)-4a,5,6,7-tetrahydro-4H-naphthalene-1,3,3-tricarbonitrile] as the compound, how does the EC50 read?
A: 21.7 µM

Q: `C=CCN1C(=O)NC(=O)C(=CNc2ccc(N(CC)CC)cc2)C1=O` [(5E)-1-allyl-5-[[4-(diethylamino)anilino]methylene]barbituric acid] was tested. Which EC50 did it give?
A: 109 µM

Q: With `CSc1nnc(N2C(=O)C(=O)C(C(=O)c3ccco3)C2c2ccc(F)cc2)s1` (stereo not given) [2-(4-fluorophenyl)-3-(furan-2-carbonyl)-4-hydroxy-1-(5-methylsulfanyl-1,3,4-thiadiazol-2-yl)-2H-pyrrol-5-one] as the compound, how does the EC50 read?
A: 150 µM

Q: With `Cc1cc(CN=Nc2ccc([N+](=O)[O-])cn2)c(C)n1-c1ccc(C(=O)O)cc1` [4-{2,5-dimethyl-3-[2-(5-nitro-2-pyridinyl)carbonohydrazonoyl]-1H-pyrrol-1-yl}benzoic acid] as the compound, how does the EC50 read?
A: > 300 µM

Q: With `O=C(Cc1nc2cc(Cl)ccc2oc1=O)c1cccs1` [(3Z)-6-chloranyl-3-(2-oxidanylidene-2-thiophen-2-yl-ethylidene)-4H-1,4-benzoxazin-2-one] as the compound, how does the EC50 read?
A: 230 µM

Q: Which EC50 does the source give for `O=C(N/N=C/C1C=C(Cl)C=C([N+](=O)[O-])C1=O)c1ccccc1NS(=O)(=O)c1cccs1` (stereo not given) [SMR000364876] here?
A: 282 µM

Q: Which EC50 does the source give for `CCn1nc(C)c(C=C2CCCC3=C2OC(=N)C(C#N)C3c2c(C)nn(CC)c2C)c1C` (stereo not given) [(8E)-2-amino-4-(1-ethyl-3,5-dimethyl-1H-pyrazol-4-yl)-8-[(1-ethyl-3,5-dimethyl-1H-pyrazol-4-yl)methylene]-5,6,7,8-tetrahydro-4H-chromene-3-carbonitrile] here?
A: 36 µM

Q: For `O=C(CC(=O)c1ccccc1)C(=O)NNC(=O)c1ccccc1[N+](=O)[O-]` [2-Nitro-benzoic acid N'-(2-hydroxy-4-oxo-4-phenyl-but-2-enoyl)-hydrazide], which EC50 is on record?
A: 70 µM
